According to PubChem BioAssay (NCI):
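Growth conditions: 96-well plates. Treatment: test compound, 48 hours, 5 concentrations. Analysis: linear interpolation between bracketing concentrations; unreached endpoints set to highest concentration. Here, GI50 denotes the concentration required for 50% inhibition of growth. The concentration for full growth arrest is given as TGI.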

Assays:
Experiment in all cases: NCI tumour cell line growth inhibition, 48 h
SK-MEL-2 melanoma = test system: SK-MEL-2 melanoma
SR leukemia = test system: SR leukemia
SK-OV-3 ovarian = test system: SK-OV-3 ovarian
SK-MEL-5 melanoma = test system: SK-MEL-5 melanoma
OVCAR-3 ovarian = test system: OVCAR-3 ovarian
RXF 393 renal = test system: RXF 393 renal
A498 renal = test system: A498 renal
SK-MEL-28 melanoma = test system: SK-MEL-28 melanoma
DMS 114 small cell lung = test system: DMS 114 small cell lung
DLD-1 colon = test system: DLD-1 colon
SNB-78 CNS = test system: SNB-78 CNS

SMILES	TGI (SK-MEL-2 melanoma)	TGI (SR leukemia)	TGI (SK-OV-3 ovarian)	TGI (SK-MEL-5 melanoma)	TGI (OVCAR-3 ovarian)	TGI (RXF 393 renal)	TGI (A498 renal)	TGI (SK-MEL-28 melanoma)	TGI (DMS 114 small cell lung)	TGI (DLD-1 colon)	TGI (SNB-78 CNS)	GI50 (SK-MEL-2 melanoma)	GI50 (SK-OV-3 ovarian)	GI50 (SK-MEL-5 melanoma)	GI50 (OVCAR-3 ovarian)	GI50 (RXF 393 renal)	GI50 (A498 renal)	GI50 (SK-MEL-28 melanoma)	GI50 (SR leukemia)
CN(C)c1ccc2nc3c(C(=O)O)cc(=O)c(O)c-3oc2c1	40.2 µM	50.1 µM	> 100 µM	29.3 µM	60.8 µM	76.3 µM	> 100 µM	> 100 µM	–	–	–	–	–	–	–	–	–	–	–
Cc1ccc(C)c(/C(=N\N=C(N)N)C2CC2)c1	> 100 µM	> 100 µM	> 100 µM	> 100 µM	> 100 µM	> 100 µM	> 100 µM	> 100 µM	–	–	–	–	–	–	–	–	–	–	–
c1ccc2c[n+](CCCCCCCCCC[n+]3ccc4ccccc4c3)ccc2c1	> 10 µM	> 10 µM	> 10 µM	> 10 µM	> 10 µM	> 10 µM	> 10 µM	> 10 µM	–	–	–	–	–	–	–	–	–	–	–
CCN(CC)Cc1ccc2cccnc2c1O	80.1 µM	> 100 µM	25.1 µM	> 100 µM	11.4 µM	> 100 µM	33.5 µM	> 100 µM	–	–	–	–	–	–	–	–	–	–	–
NCS(=O)(=O)O	> 100 µM	–	> 100 µM	> 100 µM	> 100 µM	> 100 µM	> 100 µM	> 100 µM	–	–	–	–	–	–	–	–	–	–	–
Cc1c2ccnc(-c3ccccc3)c2cc2c1[nH]c1ccccc12	7.3 µM	–	9.39 µM	2.78 µM	8.99 µM	6.22 µM	10.6 µM	19.5 µM	4.82 µM	16.1 µM	30.4 µM	–	–	–	–	–	–	–	–
Cc1ncc(CO)c(CN)c1O	> 100 µM	–	> 100 µM	> 100 µM	> 100 µM	> 100 µM	> 100 µM	> 100 µM	–	–	–	–	–	–	–	–	–	–	–
COc1ccc(CNc2nc(NCc3ccc(OC)cc3)nc(NC(C)C)n2)cc1	44.2 µM	> 100 µM	> 100 µM	16.5 µM	10.3 µM	38.5 µM	47.1 µM	> 100 µM	–	–	–	–	–	–	–	–	–	–	–
O=C(CC1(O)C(=O)Nc2ccc(Br)cc21)c1ccc(C(=O)NCC2CCC3(CC2)OOC2(CCCCC2)OO3)cc1 (stereo not drawn)	9.23 µM	–	31.3 µM	7.09 µM	10.4 µM	26.7 µM	30.2 µM	46 µM	–	–	–	2.92 µM	10.4 µM	2.4 µM	2.13 µM	5.46 µM	14.7 µM	11.1 µM	–
CC[C@H](Nc1nc(N)nc(N)c1Cl)c1nc2cccc(NCc3ccc(C(=O)NO)cc3)c2c(=O)n1-c1ccccc1	5.27 µM	> 100 µM	–	3.22 µM	–	1.75 µM	2.71 µM	3.21 µM	–	–	–	2.02 µM	–	1.75 µM	–	0.403 µM	1.34 µM	1.55 µM	0.579 µM
COc1cnc2c(c1)C(=O)c1c-2n(CCCN2CCNCC2)c(=O)c2cc(Cl)ccc12	4.65 µM	–	2.51 µM	–	2.83 µM	–	2.28 µM	–	–	–	–	2.11 µM	1.16 µM	–	1.43 µM	–	0.551 µM	–	–
CCOC(=O)c1c2c(c(O)c3ccccc3c(O)n(-c3ccc(C)cc3)c1C)C(=O)C=CC2=O	64.7 µM	–	89.7 µM	31.9 µM	35.2 µM	55.7 µM	–	–	–	–	–	–	–	–	–	–	–	–	–
